# Results taken from BindingDB's records for doi:10.1021/ja050122x (Yale University, 2005).
# Target: Bcl-2-like protein 1 (Homo sapiens, UniProt Q07817)
# Assay: Fluorescence Polarization Assay
# Conditions: pH 7.4; 25 °C
# Method: Fluorescence polarization experiments were conducted on a Photon Technology International instrument using a 0.3 cm path length cuvette. Spectra were measured at 25 deg C using 10.0 nm slit widths. Excitation at 495 nm was used for the fluorescein-containing peptide Fl-Bak and the emission maximum at 535 nm was monitored. Polarization measurements were recorded upon titration of inhibitors at varying concentrations into a solution of Fl-Bak and Bcl-xL. Regression analysis was carried out using SigmaPlot 2001 (Systat Co.) ligand binding macro module. Experimental data were fitted to determine the IC50 values, which can be related to the known affinity of the 16-mer Bak peptide (Kd =120 nM) to acquire the inhibitory constant Ki.
# Chain of Bcl-2-like protein 1 (Q07817 whole entry): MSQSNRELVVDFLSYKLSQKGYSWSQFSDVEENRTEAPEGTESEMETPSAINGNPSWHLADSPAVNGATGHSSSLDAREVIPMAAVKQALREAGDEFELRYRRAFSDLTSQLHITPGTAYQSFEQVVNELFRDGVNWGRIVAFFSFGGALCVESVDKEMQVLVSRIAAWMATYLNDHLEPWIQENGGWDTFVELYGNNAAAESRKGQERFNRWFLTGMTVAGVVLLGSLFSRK
row,SMILES,Ki [µM]
1,CCc1cc(-c2ccc(OCC(=O)O)cc2C(C)C)ccc1-c1cccc(Cc2cccc3ccccc23)c1,6.88
2,"CC(C)Cc1cc(CCC(=O)O)ccc1-c1ccc(-c2ccc(OCC(=O)O)c(Cc3ccccc3)c2)c(Cc2ccccc2)c1 [terphenyl scaffold, 18]",2.73
3,"CC(C)Cc1cc(CCC(=O)O)ccc1-c1ccc(-c2ccc(OCC(=O)O)c(Cc3cccc4ccccc34)c2)c(CC(C)C)c1 [terphenyl scaffold, 19]",2.7
4,"Cc1cc(CCC(=O)O)ccc1-c1cc(C)c(-c2ccc(OCC(=O)O)c(Cc3ccccc3)c2)c(CCC(=O)O)c1 [terphenyl scaffold, 21]",> 30
5,"COC(=O)CCc1ccc(-c2ccc(-c3ccc(OCC(=O)OC)cc3)cc2)cc1 [terphenyl scaffold, 22]",> 30
6,"CC(C)Cc1cc(-c2ccc(-c3ccc(CCCN)cc3CC(C)C)cc2C(C)C)ccc1OCCN [terphenyl scaffold, 24]",13.6
7,"Cc1cccc(-c2ccc(-c3ccc(OCC(=O)O)cc3C)cc2C)c1 [terphenyl scaffold, 25]",18.2
8,"Cc1cc(OCC(=O)O)ccc1-c1ccc(-c2cccc(C(C)C)c2)c(C)c1 [terphenyl scaffold, 26]",10.4
9,"CC(C)Cc1cc(OCC(=O)O)ccc1-c1ccc(-c2cccc(C(C)C)c2)c(CC(C)C)c1 [terphenyl scaffold, 27]",4.82
10,"CCc1cc(-c2ccc(OCC(=O)O)cc2C(C)C)ccc1-c1cccc(Cc2ccccc2)c1 [terphenyl scaffold, 28]",3.27
11,"O=C(O)COc1ccc(-c2ccc(-c3ccccc3)cc2)cc1 [terphenyl scaffold, 30]",> 30

# These reach a lower Ki. Values come first.
row,Ki [µM],SMILES
1,0.114,"CC(C)Cc1cc(-c2ccc(-c3ccc(CCC(=O)O)cc3CC(C)C)cc2Cc2cccc3ccccc23)ccc1OCC(=O)O [terphenyl scaffold, 14]"
2,2.09,"CC(C)Cc1cc(-c2ccc(-c3ccc(CCC(=O)O)cc3CC(C)C)cc2C(C)C)ccc1OCC(=O)O [terphenyl scaffold, 15]"
3,1.82,"CC(C)Cc1cc(-c2ccc(-c3ccc(CCC(=O)O)cc3CC(C)C)cc2Cc2ccccc2)ccc1OCC(=O)O [terphenyl scaffold, 16]"
4,2.5,"CC(C)Cc1cc(-c2ccc(-c3ccc(CCC(=O)O)cc3CC(C)C)cc2Cc2ccc3ccccc3c2)ccc1OCC(=O)O [terphenyl scaffold, 17]"
5,2.34,"Cc1cc(CCC(=O)O)ccc1-c1cc(C)c(-c2ccc(OCC(=O)O)c(Cc3ccccc3)c2)c(C)c1 [terphenyl scaffold, 20]"
